Source: the NIST ThermoML archive (doi:10.1021/je300280s)
Values joined by “and” are separate entries in the source; they are usually repeats but may differ in a detail not shown here. Identical values can stand only once.

Assay: excess molar enthalpy (molar enthalpy of mixing); xn = mol fraction of the nth substance listed
Settings: 101.3 kPa, Liquid, Flow calorimetry

CC(=O)C(C)=O [2,3-butanedione] + O
Settings | excess molar enthalpy
288.18 K, x1 = 0.00103 | -0.00487 kcal/mol
288.18 K, x1 = 0.001032 | -0.00488 kcal/mol
288.18 K, x1 = 0.002059 | -0.00976 kcal/mol
288.18 K, x1 = 0.002062 | -0.00976 kcal/mol
288.18 K, x1 = 0.003086 | -0.0146 kcal/mol
288.18 K, x1 = 0.003089 | -0.0146 kcal/mol
288.18 K, x1 = 0.004111 | -0.0193 kcal/mol
288.18 K, x1 = 0.004113 | -0.0194 kcal/mol
288.18 K, x1 = 0.005132 | -0.0241 kcal/mol
288.18 K, x1 = 0.005135 | -0.0241 kcal/mol
288.18 K, x1 = 0.006153 | -0.029 kcal/mol
288.18 K, x1 = 0.006157 | -0.0288 kcal/mol
293.15 K, x1 = 0.001031 | -0.00462 kcal/mol
293.15 K, x1 = 0.00206 | -0.00926 kcal/mol
293.15 K, x1 = 0.003088 | -0.0138 kcal/mol
293.15 K, x1 = 0.004114 | -0.0182 kcal/mol
293.15 K, x1 = 0.005136 | -0.0227 kcal/mol
293.15 K, x1 = 0.006158 | -0.0272 kcal/mol
298.15 K, x1 = 0.001032 | -0.00443 kcal/mol and -0.00441 kcal/mol
298.15 K, x1 = 0.002061 | -0.00881 kcal/mol
298.15 K, x1 = 0.002062 | -0.00882 kcal/mol
298.15 K, x1 = 0.003089 | -0.0132 kcal/mol
298.15 K, x1 = 0.004113 | -0.0175 kcal/mol
298.15 K, x1 = 0.004114 | -0.0174 kcal/mol
298.15 K, x1 = 0.005137 | -0.0218 kcal/mol
298.15 K, x1 = 0.00616 | -0.0261 kcal/mol
303.15 K, x1 = 0.001032 | -0.00411 kcal/mol
303.15 K, x1 = 0.002061 | -0.00821 kcal/mol
303.15 K, x1 = 0.003089 | -0.0123 kcal/mol
303.15 K, x1 = 0.004114 | -0.0163 kcal/mol
303.15 K, x1 = 0.005137 | -0.0203 kcal/mol
303.15 K, x1 = 0.006159 | -0.0243 kcal/mol
308.15 K, x1 = 0.001031 | -0.00386 kcal/mol and -0.00387 kcal/mol
308.15 K, x1 = 0.00206 | -0.00777 kcal/mol and -0.00778 kcal/mol
308.15 K, x1 = 0.003086 | -0.0116 kcal/mol
308.15 K, x1 = 0.003088 | -0.0117 kcal/mol
308.15 K, x1 = 0.004109 | -0.0155 kcal/mol
308.15 K, x1 = 0.004114 | -0.0155 kcal/mol
308.15 K, x1 = 0.005131 | -0.0194 kcal/mol
308.15 K, x1 = 0.005137 | -0.0194 kcal/mol
308.15 K, x1 = 0.006152 | -0.0232 kcal/mol
308.15 K, x1 = 0.00616 | -0.0232 kcal/mol
313.15 K, x1 = 0.001032 | -0.00352 kcal/mol
313.15 K, x1 = 0.002062 | -0.0071 kcal/mol
313.15 K, x1 = 0.003091 | -0.0107 kcal/mol
313.15 K, x1 = 0.004116 | -0.0142 kcal/mol
313.15 K, x1 = 0.005139 | -0.0178 kcal/mol
313.15 K, x1 = 0.006161 | -0.0213 kcal/mol
318.15 K, x1 = 0.001031 | -0.00324 kcal/mol
318.15 K, x1 = 0.001032 | -0.00325 kcal/mol
318.15 K, x1 = 0.00206 | -0.00659 kcal/mol
318.15 K, x1 = 0.002062 | -0.00661 kcal/mol
318.15 K, x1 = 0.003088 | -0.01 kcal/mol
318.15 K, x1 = 0.00309 | -0.00996 kcal/mol
318.15 K, x1 = 0.004114 | -0.0133 kcal/mol
318.15 K, x1 = 0.004116 | -0.0133 kcal/mol
318.15 K, x1 = 0.005137 | -0.0167 kcal/mol
318.15 K, x1 = 0.00514 | -0.0168 kcal/mol
318.15 K, x1 = 0.006159 | -0.0201 kcal/mol
